Values quoted from earlier work, collected in US5529986A, “Conjugate, its preparation and use and a substrate prepared with the conjugate” (priority 1991, dated 1996).

Settings: heparin used for standard graphs

Question: For heparin, which “Known specific biological activity” value is on record?
Answer: 180 I.U./mg
